Reference: patent US6514911B1, “Substituted oxadiazines useful as pesticides” (Uniroyal Chemical Company, Inc., priority 2002, dated 2003)

Assays:
Format in all cases: in vivo
[1] = test system: green foxtail (Setaria virdis (L.) Beauv.) (GF); experiment: Preemergence herbicide test, soil drench, green foxtail; details: 10 lbs/A (11.2 kg/ha) soil drench, two weeks after treatment, vs untreated checks; for pest or weed control at 11208.5 g/ha: Setaria, 336 h, read-out: Percent Weed Control GF
Procedure: To illustrate the effectiveness of the previously described substituted oxadiazines of this invention as preemergence herbicides, 300 mg of the chemical was dissolved in a composition comprising 10 mL acetone to which 30 mg of tile emulsifying agent, ethoxylated sorbitan monolaurate, was added. The solution was diluted to 100 mL with distilled water. Ten milliliters of this 3000 ppm solution was diluted to 250 ppm with distilled water. The chemical was applied at the rate of 10 pounds/acre (11.2 kg/ha) by drenchings 46 mL of the 250 ppm solution on the surface of soil in 41⁄2 inch (11.25 cm) plastic pots wherein seeds of the following weeds had been planted: green foxtail (Setaria […].) Beauv.) (GF). The percent control of the weeds compared to untreated checks was determined two weeks after treatment. TABLE 1 summarizes the results achieved with compounds formulated as indicated above, and the data clearly indicate the good to excellent herbicidal efficacy of compositions of this invention.

[2] = test system: barnyardgrass (Echinochloa crus-galli (L.) Beauv.) (BG); experiment: Preemergence herbicide test, soil drench, barnyardgrass; details: 10 lbs/A (11.2 kg/ha) soil drench, two weeks after treatment, vs untreated checks; for pest or weed control at 11208.5 g/ha: Echinochloa crus-galli, 336 h, read-out: Percent Weed Control BG
Procedure: (§1) To illustrate the effectiveness of the previously described substituted oxadiazines of this invention as preemergence herbicides, 300 mg of the chemical was dissolved in a composition comprising 10 mL acetone to which 30 mg of tile emulsifying agent, ethoxylated sorbitan monolaurate, was added. The solution was diluted to 100 mL with distilled water. Ten milliliters of this 3000 ppm solution was diluted to 250 ppm with distilled water. The chemical was applied at the rate of 10 pounds/acre (11.2 kg/ha) by drenchings 46 mL of the 250 ppm solution on the surface of soil in 4½ inch (11.25 cm) plastic pots wherein seeds of the following weeds had been planted: barnyardgrass (Echinochloa crus-galli (L.) Beauv.) (BG), and The percent control of the weeds compared to untreated checks was determined two weeks after treatment. TABLE 1 summarizes the results achieved with compounds formulated as indicated above, and the data clearly indicate the good to excellent herbicidal efficacy of compositions of this invention.

[3] = test system: tall morningglory (Ipomoea purpurea (L.) Roth) (TM); experiment: Preemergence herbicide test, soil drench, tall morningglory; details: 10 lbs/A (11.2 kg/ha) soil drench, two weeks after treatment, vs untreated checks; for pest or weed control at 11208.5 g/ha: Ipomoea, 336 h, read-out: Percent Weed Control TM
Procedure: as §1, with “tall morningglory (Ipomoea purpurea” for “barnyardgrass (Echinochloa crus-galli”, “Roth) (TM),” for “Beauv.) (BG), and”

[4] = test system: switchgrass (Panicum virgahim L.) (SG); experiment: Preemergence herbicide test, soil drench, switchgrass; details: 10 lbs/A (11.2 kg/ha) soil drench, two weeks after treatment, vs untreated checks; for pest or weed control at 11208.5 g/ha: Panicum, 336 h, read-out: Percent Weed Control SG
Procedure: (§2) To illustrate the effectiveness of the previously described substituted oxadiazines of this invention as preemergence herbicides, 300 mg of the chemical was dissolved in a composition comprising 10 mL acetone to which 30 mg of tile emulsifying agent, ethoxylated sorbitan monolaurate, was added. The solution was diluted to 100 mL with distilled water. Ten milliliters of this 3000 ppm solution was diluted to 250 ppm with distilled water. The chemical was applied at the rate of 10 pounds/acre (11.2 kg/ha) by drenchings 46 mL of the 250 ppm solution on the surface of soil in 4½ inch (11.25 cm) plastic pots wherein seeds of the following weeds had been planted:
switchgrass (Panicum virgahim L.) (SG),
(§3) The percent control of the weeds compared to untreated checks was determined two weeks after treatment. TABLE 1 summarizes the results achieved with compounds formulated as indicated above, and the data clearly indicate the good to excellent herbicidal efficacy of compositions of this invention.

[5] = test system: jimsonweed (Datura stramonium L.) (JW); experiment: Preemergence herbicide test, soil drench, jimsonweed; details: 10 lbs/A (11.2 kg/ha) soil drench, two weeks after treatment, vs untreated checks
Procedure: as §1, with “jimsonweed (Datura stramonium L.) (JW),” for “barnyardgrass (Echinochloa crus-galli (L.) Beauv.) (BG), and”

[6] = test system: velvetleaf (Abutilon theophrasti Medik.) (VL); experiment: Preemergence herbicide test, soil drench, velvetleaf; details: 10 lbs/A (11.2 kg/ha) soil drench, two weeks after treatment, vs untreated checks; for pest or weed control at 11208.5 g/ha: Abutilon theophrasti, 336 h, read-out: Percent Weed Control VL
Procedure: as §1, with “velvetleaf (Abutilon theophrasti Medik.) (VL),” for “barnyardgrass (Echinochloa crus-galli (L.) Beauv.) (BG), and”

[7] = test system: prickly sida (Sida spinosa L.) (PS); experiment: Preemergence herbicide test, soil drench, prickly sida; details: 10 lbs/A (11.2 kg/ha) soil drench, two weeks after treatment, vs untreated checks; for pest or weed control at 11208.5 g/ha: Sida spinosa, 336 h, read-out: Percent Weed Control PS
Procedure: as §2, with “The chemical was applied at the rate of 10 pounds/acre (11.2 kg/ha) by drenchings 46 mL of the 250 ppm solution on the surface of soil in 4½ inch (11.25 cm) plastic pots wherein seeds of the following weeds had been planted:” left out
prickly sida (Sida spinosa L.) (PS),
as §3

Row | Structure (SMILES) | pest or weed control at 11208.5 g/ha [1] [%] | pest or weed control at 11208.5 g/ha [2] [%] | pest or weed control at 11208.5 g/ha [3] [%] | pest or weed control at 11208.5 g/ha [4] [%] | Percent Weed Control JW [5] [%] | pest or weed control at 11208.5 g/ha [6] [%] | Percent Weed Control GF [1] [%] | Percent Weed Control BG [2] [%] | Percent Weed Control TM [3] [%] | Percent Weed Control SG [4] [%] | Percent Weed Control VL [6] [%] | pest or weed control at 11208.5 g/ha [7] [%] | Percent Weed Control PS [7] [%]
1 | FC(F)(F)C1=NC(C(F)(F)F)(C(F)(F)F)N=C(c2ccc(Cl)cc2)O1 [Compound 5, 2-(4-chlorophenyl)-4,4,6-tris(trifluoromethyl)-4H-1,3,5-oxadiazine] | 100 | 100 | 100 | 100 | 100 | 100 |  |  |  |  |  |  | 
2 | FC(F)(F)C(F)(F)C1=NC(C(F)(F)F)(C(F)(F)F)N=C(c2ccccc2Cl)O1 [Compound 12, 2-(2-chlorophenyl)-6-(pentafluoroethyl)-4,4-bis(trifluoromethyl)-4H-1,3,5-oxadiazine] | 100 | 0 | 100 | 75 | 100 | 100 |  |  |  |  |  |  | 
3 | FC(F)(F)C1=NC(C(F)(F)F)(C(F)(F)F)N=C(c2ccccc2C(F)(F)F)O1 [Compound 6, 2,4,4-tris(trifluoromethyl)-6-{(2-trifluoromethyl)phenyl}-4H-1,3,5-oxadiazine] |  |  |  |  | 75 |  | 100 | 50 | 100 | 75 | 100 |  | 
4 | FC(F)(F)C1=NC(C(F)(F)F)(C(F)(F)F)N=C(c2ccccc2)O1 [Compound 1, 2-phenyl-4,4,6-tris(trifluoromethyl)-4H-1,3,5-oxadiazine] | 0 | 0 | 100 | 0 |  | 100 |  |  |  |  |  | 100 | 
5 | FC(F)(F)c1cccc(C2=NC(C(F)(F)F)(C(F)(F)F)N=C(C(F)(F)C(F)(F)C(F)(F)F)O2)c1 [Compound 29, 2-(heptafluoropropyl)-4,4-bis(trifluoromethyl)-6-{(3-trifluoromethyl)phenyl}-4H-1,3,5-oxadiazine] |  |  |  |  |  |  | 100 | 100 | 100 | 100 | 100 |  | 100
6 | FC(F)(F)c1cc(C2=NC(C(F)(F)F)(C(F)(F)F)N=C(C(F)(F)C(F)(F)F)O2)cc(C(F)(F)F)c1 [Compound 18, 2-{3,5-bis(trifluoromethyl)phenyl}-6-(pentafluoroethyl)-4,4-bis(trifluoromethyl)-4H-1,3,5-oxadiazine] | 100 | 100 | 100 | 100 |  | 100 |  |  |  |  |  | 100 | 
7 | FC(F)(F)C1=NC(C(F)(F)F)(C(F)(F)F)N=C(c2cccc(C(F)(F)F)c2)O1 [Compound 7, 2,4,4-tris(trifluoromethyl)-6-{(3-trifluoromethyl)phenyl}-4H-1,3,5-oxadiazine] |  |  |  |  |  |  | 100 | 100 | 100 | 100 | 100 |  | 100
8 | FC(F)(F)C(F)(F)C1=NC(C(F)(F)F)(C(F)(F)F)N=C(c2ccccc2)O1 [Compound 11, 2-(pentafluoroethyl)-6-phenyl-4,4-bis(trifluoromethyl)-4H-1,3,5-oxadiazine] | 50 | 0 | 100 | 0 |  | 100 |  |  |  |  |  | 100 | 
9 | Fc1ccccc1C1=NC(C(F)(F)F)(C(F)(F)F)N=C(C(F)(F)F)O1 [Compound 3, 2-(2-fluorophenyl)-4,4,6-tris(trifluoromethyl)-4H-1,3,5-oxadiazine] | 40 | 0 | 0 | 30 |  | 100 |  |  |  |  |  | 0 | 
